IC50 data for two compounds are collected here from PMC4245164 (ACS Chemical Biology, 2014).

For this test, the target named is NLuc (Oplophorus gracilirostris, UniProt Q9GV45, A31E/A60N/A81I/F95D/I117V/K70R/L54V/L99Q/M102K/N193R/P142E/Q151K/Q38R/Q45L/V71I/Y165I). Put plainly: Biochemical NLuc enzyme assay with S16 secNLuc cell culture medium.
Chain of NLuc (Q9GV45 28-196 with the stated changes): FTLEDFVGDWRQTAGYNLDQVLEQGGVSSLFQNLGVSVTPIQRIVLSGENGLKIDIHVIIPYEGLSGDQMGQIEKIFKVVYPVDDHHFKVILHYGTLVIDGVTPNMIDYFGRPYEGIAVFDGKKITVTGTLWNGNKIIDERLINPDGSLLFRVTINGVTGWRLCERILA

`COC(=O)C1=C(C)NC(C)=C(C(=O)OC(C)C)C1c1cccc2nonc12` (centres unmarked) [isradipine] gave an IC50 of 6 µM.
In the case of `CCOC(=O)C1=C(C)NC(C)=C(C(=O)OC)C1c1cccc([N+](=O)[O-])c1` (centres unmarked) [nitrendipine] it was 6 µM.

By IC50 is commonly meant the concentration that gives 50% inhibition.
